Experimental data published in publication PMC10251482, “Cyanomethyl Vinyl Ethers Against Naegleria fowleri” (ACS Chemical Neuroscience, 2023).
Where two headings read alike, the source gives them in different places.

Columns and labels:
[1] = system: N. fowleri ATCC 30808 trophozoites; assay: In vitro activity against trophozoite stage (alamarBlue), strain ATCC 30808; assay type: cell-based, Naegleria fowleri; conditions: for S.I. ATCC 30808 (selectivity index CC50/IC50): CC50 murine macrophages / IC50 N. fowleri ATCC 30808; for IC50 / IC90: Naegleria fowleri, ATCC30808, trophozoites, alamarBlue, 48 h incubation
[2] = system: N. fowleri ATCC 30215 trophozoites; assay: In vitro activity against trophozoite stage (alamarBlue), strain ATCC 30215; assay type: cell-based; conditions: Naegleria fowleri, ATCC30215, 48 h incubation
[3] = In vitro cytotoxicity against murine macrophages (alamarBlue); assay type: cell-based; conditions: mouse
Protocol: (§1) For cytotoxicity assays, a murine cell line macrophage J774A.1 (ATCC TIB-67) was used, maintained in the Dulbecco’s modified Eagle’s medium (DMEM, w/v) supplemented with 10% (v/v) FBS and 10 μg/mL gentamicin (Sigma-Aldrich, Madrid, Spain), incubated at 37 °C in a 5% CO2 atmosphere.
(§2) In this assay, a murine macrophage cell line J774A.1 (ATCC TIB-67) was used. Serial dilutions of the compounds were added and, subsequently, the alamarBlue reagent as described in previous studies[51] was also placed. Once the plates were read on the EnSpire Multimode Plate Reader (PerkinElmer, Madrid, Spain), the data were analyzed to obtain the cytotoxic concentration 50 (CC50). This CC50, together with the activity, was used to obtain the selectivity index for N. fowleri.

[4] = system: N. fowleri ATCC 30808 trophozoites; assay: Chromatin condensation assay (Hoechst 33342/PI double stain); assay type: cell-based, Naegleria fowleri; conditions: 24 h incubation with IC90
Protocol: (§3) To evaluate the mechanisms of action of the compounds at the cellular level, a series of commercial kits were used according to the manufacturer’s instructions. To carry out the assays, the N. fowleri ATCC 30808 culture was previously incubated with the IC90 of the compounds evaluated for 24 h. Nontreated N. fowleri trophozoites were used as a negative control. […] Five images were processed each time at 40x and 100x objective lenses.
A double-stain apoptosis detection kit (Hoechst 33342/PI) (Life Technologies, Madrid, Spain) was used to evaluate DNA condensation based on the fluorescent detection for chromatin compaction in apoptotic cells, and the assay offers a rapid and convenient apoptosis detection. As soon as the amoebae have been incubated for 24 h with the active compound’s IC90, Hoechst and propidium iodide (PI) are added at a final concentration of 5 and 1 μg/mL, respectively. Fluorescence should be observed after 15 min of incubation in the dark. In apoptotic cells, Hoechst 33342, a dye for blue fluorescence, stains the condensed chromatin more intensely than that in normal cells. PI emits red fluorescence (maximum excitation and emission wavelengths when bound to DNA of 535 and 617 nm, respectively), which can only be emitted through dead cells.

[5] = system: N. fowleri ATCC 30808 trophozoites; assay: Actin filament depolymerization (phalloidin-TRITC); assay type: cell-based, Naegleria fowleri; conditions: 24 h incubation with IC90, Z-stack imaging
Protocol: To evaluate the mechanisms of action of the compounds at the cellular level, a series of commercial kits were used according to the manufacturer’s instructions. To carry out the assays, the N. fowleri ATCC 30808 culture was previously incubated with the IC90 of the compounds evaluated for 24 h. Nontreated N. fowleri trophozoites were used as a negative control. […] Five images were processed each time at 40x and 100x objective lenses. The disassembly of cytoskeleton in treated amoebae can be analyzed by the red fluorescence emitted by phalloidin-TRITC when it binds to actin filaments. On the other hand, DAPI reagent was used which, in turn, binds to DNA and emits blue fluorescence, as already described in Acanthamoeba genus.[52] In this assay, amoebae were incubated with the IC90 of compounds. A 24-h incubation period was followed by the fixation of the cells with formaldehyde on a coverslip and the addition of 0.1% Triton before the addition of phalloidin-tetramethylrhodamine B isothiocyanate (phalloidin-TRITC; Sigma-Aldrich, Madrid, Spain) for another 30-min period. Finally, after incubation, the sample was washed with PBS. Cells were examined by Z-stack with a 100x objective of the EVOS FL Cell Imaging System AMF4300 (Life Technologies, Madrid, Spain).

[6] = system: N. fowleri ATCC 30808 trophozoites; assay type: cell-based, Naegleria fowleri; conditions: not told
Protocol: as §3
The permeability of the plasma membrane can be analyzed using a green fluorescent dye called SYTOX Green (Life Technologies, Madrid, Spain). After the amoebae are incubated for 24 h with the IC90 of cyanomethyl vinyl ethers, SYTOX Green was added to a final concentration of 1 μM and after 15 min of incubation, cells were observed using Discover Echo Inc. Revolution Microscope (Discover Echo, San Diego, CA). The plasma membrane of the damaged cells will become permeable, giving the reagent the ability to enter through it. When inside the cell, it binds to the DNA and increases its fluorescence more than 500-fold, emitting green fluorescence at 523 nm.

[7] = system: N. fowleri ATCC 30808 cysts; assay: In vitro activity against cyst stage (alamarBlue); assay type: cell-based; conditions: Naegleria fowleri, ATCC30808, read 24 h after adding reagent, read-out: Cysticidal activity, N. fowleri ATCC 30808 IC50
[8] = system: N. fowleri ATCC 30808 trophozoites; assay: Mitochondrial membrane potential disruption (JC-1); assay type: cell-based, Naegleria fowleri; conditions: 24 h incubation with IC90
Protocol: as §3
To determine the potential of the mitochondrial membrane was use the dye JC-1 (1,1′,3,3′-tetraethyl-5,5′,6,6′-tetrachloroimidacarbocyanine iodide) (Cayman Chemicals Vitro SA, Madrid, España). Once the amoebae were incubated for 24 h with the IC90 of the active compounds, 10 μL of JC-1 was added. […] The reagent fluoresces at two different wavelengths depending on the membrane potential. Under normal conditions, the monomers bind together to form J-aggregates (dimers) emitting red fluorescence at 595 nm.

[9] = system: N. fowleri ATCC 30808 trophozoites; assay: Oxidative stress / ROS detection (CellROX Deep Red); assay type: cell-based, Naegleria fowleri; conditions: 24 h incubation with IC90
Protocol: To evaluate the mechanisms of action of the compounds at the cellular level, a series of commercial kits were used according to the manufacturer’s instructions. To carry out the assays, the N. fowleri ATCC 30808 culture was previously incubated with the IC90 of the compounds evaluated for 24 h. Nontreated N. fowleri trophozoites were used as a negative control. […] Five images were processed each time at 40x and 100x objective lenses. In this assay, the oxidative stress produced in the pathogen by the generation of oxygen free radicals is evaluated. The CellROX Deep Red kit (Invitrogen, Thermo Fisher Scientific, Madrid, Spain) was used in amoebae incubated for 24 h with the IC90 of the compounds to be tested. The reagent was used at a final concentration of 5 μM and incubated for 30 min. After this time, the action of the reagent was observed using the Discover Echo Inc. Revolution Microscope (Discover Echo, San Diego, CA). As a result of the overproduction of reactive oxygen species (ROS), this dye has the ability to penetrate the cells and emit red fluorescence at a wavelength of ∼644/665 nm.

[10] = system: N. fowleri ATCC 30808 trophozoites; assay: ATP levels (CellTiter-Glo Luminescent Cell Viability Assay); assay type: cell-based, Naegleria fowleri; conditions: 24 h incubation with IC90
Protocol: To evaluate the mechanisms of action of the compounds at the cellular level, a series of commercial kits were used according to the manufacturer's instructions. To carry out the assays, the N. fowleri ATCC 30808 culture was previously incubated with the IC90 of the compounds evaluated for 24 h. Nontreated N. fowleri trophozoites were used as a negative control. […] Five images were processed each time at 40x and 100x objective lenses. In order to measure the amount of ATP produced, Cell […]-GLO Luminescent Cell Viability assay (Promega Biotech Ibérica, Madrid, Spain) was used. With this kit, it is possible to compare the ATP production of treated cells to that of nontreated (negative control). ATP levels were evaluated by luminescent analysis using an EnSpire Multimode Plate Reader (Perkin Elmer, Madrid, Spain) following incubation with IC90 of selected compounds at 37 °C for 24 h.

[11] = system: murine macrophage cell line J774A.1 (ATCC TIB-67); assay: In vitro cytotoxicity against murine macrophages (alamarBlue); assay type: cell-based; conditions: mouse
Protocol: as §1, §2

[12] = J774A.1 macrophage cell line (ATCC TIB-67), alamarBlue, read-out: Murine macrophages J774.A1 CC50
[13] = Murine macrophages J774.A1 CC50

Row | Compound | S.I. ATCC 30808 (selectivity index CC50/IC50) [1] | IC50 [1] [µM] | IC90 [1] [µM] | IC50 [2] [µM] | CC50 [3, 12] [µM] | CC50 [3, 13] [µM] | Chromatin condensation (Hoechst 33342 blue fluorescence) [4] | Actin filaments (phalloidin-TRITC fluorescence) [5] | Plasma membrane permeability (SYTOX Green fluorescence) [6] | IC50 [7] [µM] | Mitochondrial membrane potential (JC-1 fluorescence) [8] | Intracellular ROS generation (CellROX Deep Red fluorescence) [9] | Decrease in ATP levels compared to the negative control [10] [%] | CC50 [11] [µM] | Propidium iodide red fluorescence [4]
1 | C[C@@H]1[C@H](O)[C@@H](C)/C=C/C=C/C=C/C=C/C=C/C=C/C=C/[C@H](O[C@@H]2O[C@H](C)[C@@H](O)[C@H](N)[C@@H]2O)C[C@@H]2O[C@](O)(C[C@@H](O)C[C@@H](O)[C@H](O)CC[C@@H](O)C[C@@H](O)CC(=O)O[C@H]1C)C[C@H](O)[C@H]2C(=O)O [Amphotericin B, reference compound] | ≥1652.89 | 0.12 ± 0.03 | 0.35 ± 0.02 | 0.16 ± 0.02 | ≥ 200 |  |  |  |  |  |  |  |  |  | 
2 | CCCCCCCCCCCCCCCCOP(=O)([O-])OCC[N+](C)(C)C [Miltefosine, miltefosine, reference compound] | 3.30 | 38.7 ± 4.23 | 89.5 ± 17.4 | 81.6 ± 7.23 | 128 ± 8.85 |  |  |  |  |  |  |  |  |  | 
3 | COC(=O)/C=C/OC(C#N)c1ccccc1 (centres unmarked) [QOET-51] | 14.23 | 49.9 ± 3.04 | 173 ± 17.2 | 68.5 ± 2.16 |  | 709 ± 67.1 |  |  |  |  |  |  |  |  | 
4 | COC(=O)/C=C/OC(C#N)c1ccc(C)cc1 (centres unmarked) [QOET-59] | >20 | 42.3 ± 6.44 | 77.2 ± 11.8 | 44.5 ± 0.48 |  | > 800 | condensation was observed | bright red fluorescence region related to actin depolymerization | show green fluorescence | 93.6 ± 17.5 | disruption in the mitochondrial membrane potential | increase of the intracellular ROS generation | 98.49 | > 865 | 
5 | COC(=O)/C=C\OC(C#N)c1ccc(C(F)(F)F)cc1 (centres unmarked) [QOET-64] | >9 | 38.8 ± 2.13 | 83.4 ± 9.47 | 48.9 ± 0.81 |  | > 351 |  |  |  |  |  |  |  |  | 
6 | COC(=O)/C=C/OC(C#N)c1cc(OC)c(OC)c(OC)c1 (centres unmarked) [QOET-67] | >6 | 48.3 ± 10.5 | 154 ± 15.3 | 121 ± 20.7 |  | > 325 |  |  |  |  |  |  |  |  | 
7 | COC(=O)/C=C\OC(C#N)c1ccc(C)c(C)c1 (centres unmarked) [QOET-72] | >7 | 47.7 ± 4.1 | 185 ± 7.05 | 50.1 ± 4.9 |  | > 408 | condensation was observed | bright red fluorescence region related to actin depolymerization | show green fluorescence | 130 ± 22.8 | disruption in the mitochondrial membrane potential | increase of the intracellular ROS generation | 90.25 |  | 
8 | COC(=O)/C=C/OC(C#N)c1ccccc1C (centres unmarked) [QOET-77] | >10 | 39.2 ± 6.3 | 117 ± 26.1 | 42.7 ± 8.5 |  | > 394 | condensation was observed | only low red fluorescence was detected | show green fluorescence | 102 ± 7.01 | disruption in the mitochondrial membrane potential | increase of the intracellular ROS generation | 86.28 |  | late apoptosis phase
9 | COC(=O)/C=C/OC(C#N)c1ccc(F)cc1 (centres unmarked) [QOET-79] | >10 | 43.3 ± 5.69 | 119 ± 26 | 54.3 ± 7.4 |  | > 425 |  |  |  |  |  |  |  |  | 
